This note sets out measurements from paper PMC8550792, “Evolution of kinase polypharmacology across HSP90 drug discovery” (Cell Chemical Biology, 2021).

What all share (experiment): biochemical
What all share (assay type): biochemical

The target in assay [1] is T1, 382 unique human kinases (Homo sapiens, UniProt Q00526).
T1 construct: purchased Reaction Biology (HotSpot contract assay)
The note with it: kinase CDK3/cyclin E, compound 10 uM; for remaining activity at 10 µM: read-out: % Enzyme Activity (relative to DMSO controls).

The target in assay [2] is T2, 382 unique human kinases (Homo sapiens, UniProt Q9NRM7).
T2 construct: purchased Reaction Biology (HotSpot contract assay)
T2 sequence (Q9NRM7 1-1088): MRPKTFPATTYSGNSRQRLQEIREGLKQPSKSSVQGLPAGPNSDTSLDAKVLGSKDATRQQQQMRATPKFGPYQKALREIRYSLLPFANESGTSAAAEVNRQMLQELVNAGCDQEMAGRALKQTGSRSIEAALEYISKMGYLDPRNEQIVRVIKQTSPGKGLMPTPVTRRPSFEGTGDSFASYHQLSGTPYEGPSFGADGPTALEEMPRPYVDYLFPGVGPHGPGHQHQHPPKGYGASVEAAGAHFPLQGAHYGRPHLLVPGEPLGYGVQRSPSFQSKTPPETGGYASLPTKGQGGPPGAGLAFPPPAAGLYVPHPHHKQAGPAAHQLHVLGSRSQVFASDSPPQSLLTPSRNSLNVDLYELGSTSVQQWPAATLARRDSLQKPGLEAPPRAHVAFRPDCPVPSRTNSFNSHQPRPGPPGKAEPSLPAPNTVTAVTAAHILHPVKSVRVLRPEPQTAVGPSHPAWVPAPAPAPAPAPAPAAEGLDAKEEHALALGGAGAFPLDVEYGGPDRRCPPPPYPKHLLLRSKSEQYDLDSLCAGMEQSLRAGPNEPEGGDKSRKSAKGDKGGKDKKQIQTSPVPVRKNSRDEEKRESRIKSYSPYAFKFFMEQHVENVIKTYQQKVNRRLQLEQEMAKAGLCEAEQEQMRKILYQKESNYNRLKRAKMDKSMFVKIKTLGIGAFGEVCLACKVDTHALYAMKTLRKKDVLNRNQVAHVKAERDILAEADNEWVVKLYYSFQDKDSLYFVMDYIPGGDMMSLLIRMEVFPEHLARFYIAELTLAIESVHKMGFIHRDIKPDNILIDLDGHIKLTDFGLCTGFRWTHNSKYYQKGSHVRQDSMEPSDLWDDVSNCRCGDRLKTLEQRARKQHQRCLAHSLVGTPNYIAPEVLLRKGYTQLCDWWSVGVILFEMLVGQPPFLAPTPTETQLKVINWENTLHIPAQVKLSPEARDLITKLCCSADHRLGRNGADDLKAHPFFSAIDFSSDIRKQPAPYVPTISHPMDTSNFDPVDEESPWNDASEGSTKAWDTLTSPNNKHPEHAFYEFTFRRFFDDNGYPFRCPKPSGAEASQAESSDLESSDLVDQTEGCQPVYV
The note with it: LATS2, 10 uM; for remaining activity at 10 µM: read-out: % Enzyme Activity (relative to DMSO controls).

Assay [3] addresses T3, 382 unique human kinases (Homo sapiens, UniProt Q9Y5S2).
T3 construct: purchased Reaction Biology (HotSpot contract assay)
The note with it: MRCKb/CDC42BPB, 10 uM; for remaining activity at 10 µM: read-out: % Enzyme Activity (relative to DMSO controls).

In assay [4] the target is T4, 382 unique human kinases (Homo sapiens, UniProt Q12866).
T4 construct: purchased Reaction Biology (HotSpot contract assay)
T4 sequence (Q12866 21-999): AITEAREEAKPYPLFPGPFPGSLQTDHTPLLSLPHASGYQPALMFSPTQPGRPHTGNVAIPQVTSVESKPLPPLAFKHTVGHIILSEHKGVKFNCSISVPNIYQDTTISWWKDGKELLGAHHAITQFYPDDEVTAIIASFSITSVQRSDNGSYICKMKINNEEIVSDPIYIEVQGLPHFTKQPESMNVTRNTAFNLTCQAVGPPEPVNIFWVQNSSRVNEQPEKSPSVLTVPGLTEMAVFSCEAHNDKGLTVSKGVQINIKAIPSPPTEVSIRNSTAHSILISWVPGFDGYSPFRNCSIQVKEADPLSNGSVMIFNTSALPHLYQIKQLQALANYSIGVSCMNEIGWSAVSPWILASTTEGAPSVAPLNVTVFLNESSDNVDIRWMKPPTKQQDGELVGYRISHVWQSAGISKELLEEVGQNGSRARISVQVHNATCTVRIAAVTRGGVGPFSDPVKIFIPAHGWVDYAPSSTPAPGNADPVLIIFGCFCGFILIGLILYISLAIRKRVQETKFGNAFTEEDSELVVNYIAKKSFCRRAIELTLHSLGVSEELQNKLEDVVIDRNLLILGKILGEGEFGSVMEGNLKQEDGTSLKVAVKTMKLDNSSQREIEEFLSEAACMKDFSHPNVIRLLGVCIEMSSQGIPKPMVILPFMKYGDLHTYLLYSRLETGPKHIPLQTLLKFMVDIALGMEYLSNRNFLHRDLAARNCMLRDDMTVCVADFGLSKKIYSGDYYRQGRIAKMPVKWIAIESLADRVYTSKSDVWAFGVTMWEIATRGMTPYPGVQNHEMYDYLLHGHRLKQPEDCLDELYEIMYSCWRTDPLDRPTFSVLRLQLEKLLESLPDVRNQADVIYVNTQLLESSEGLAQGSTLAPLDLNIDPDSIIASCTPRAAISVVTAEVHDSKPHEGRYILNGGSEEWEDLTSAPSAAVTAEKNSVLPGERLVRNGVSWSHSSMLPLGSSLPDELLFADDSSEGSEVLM
The conditions noted are these: c-MER, 10 uM; for remaining activity at 10 µM: read-out: % Enzyme Activity (relative to DMSO controls).

The target in assay [5] is T5, 382 unique human kinases (Homo sapiens, UniProt P00533, L747S).
T5 construct: purchased Reaction Biology (HotSpot contract assay)
The note with it: kinase EGFR (L747S), compound 10 uM; for remaining activity at 10 µM: read-out: % Enzyme Activity (relative to DMSO controls).

The target in assay [6] is T6, 382 unique human kinases (Homo sapiens, UniProt P15056, K601E).
T6 construct: purchased Reaction Biology (HotSpot contract assay)
T6 sequence (P15056 whole entry K601E): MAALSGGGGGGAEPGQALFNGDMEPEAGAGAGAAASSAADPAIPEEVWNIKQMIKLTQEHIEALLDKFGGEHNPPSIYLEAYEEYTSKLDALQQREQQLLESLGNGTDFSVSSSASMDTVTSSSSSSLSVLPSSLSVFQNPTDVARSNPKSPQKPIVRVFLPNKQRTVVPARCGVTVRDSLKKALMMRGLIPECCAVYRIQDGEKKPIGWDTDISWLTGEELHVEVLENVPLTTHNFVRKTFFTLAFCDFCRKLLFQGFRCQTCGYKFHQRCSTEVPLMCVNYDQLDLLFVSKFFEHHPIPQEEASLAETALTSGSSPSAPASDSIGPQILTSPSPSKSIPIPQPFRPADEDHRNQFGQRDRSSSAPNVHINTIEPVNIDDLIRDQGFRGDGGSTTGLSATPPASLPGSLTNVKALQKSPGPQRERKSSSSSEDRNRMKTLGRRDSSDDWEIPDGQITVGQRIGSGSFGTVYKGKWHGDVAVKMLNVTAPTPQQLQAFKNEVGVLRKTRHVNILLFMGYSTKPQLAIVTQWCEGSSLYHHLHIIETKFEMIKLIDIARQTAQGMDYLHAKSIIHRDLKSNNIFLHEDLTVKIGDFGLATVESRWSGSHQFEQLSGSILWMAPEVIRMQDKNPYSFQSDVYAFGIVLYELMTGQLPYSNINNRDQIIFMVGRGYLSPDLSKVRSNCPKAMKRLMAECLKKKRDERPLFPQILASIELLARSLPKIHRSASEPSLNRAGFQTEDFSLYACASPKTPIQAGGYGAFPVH
The conditions noted are these: BRAF (K601E), compound at 10 uM, duplicate values; for remaining activity at 10 µM: read-out: % Enzyme Activity (relative to DMSO controls).

For assay [7], the target named is T7, 382 unique human kinases (Homo sapiens, UniProt P10721, D816Y).
T7 construct: purchased Reaction Biology (HotSpot contract assay)
T7 sequence (P10721 26-976 D816Y): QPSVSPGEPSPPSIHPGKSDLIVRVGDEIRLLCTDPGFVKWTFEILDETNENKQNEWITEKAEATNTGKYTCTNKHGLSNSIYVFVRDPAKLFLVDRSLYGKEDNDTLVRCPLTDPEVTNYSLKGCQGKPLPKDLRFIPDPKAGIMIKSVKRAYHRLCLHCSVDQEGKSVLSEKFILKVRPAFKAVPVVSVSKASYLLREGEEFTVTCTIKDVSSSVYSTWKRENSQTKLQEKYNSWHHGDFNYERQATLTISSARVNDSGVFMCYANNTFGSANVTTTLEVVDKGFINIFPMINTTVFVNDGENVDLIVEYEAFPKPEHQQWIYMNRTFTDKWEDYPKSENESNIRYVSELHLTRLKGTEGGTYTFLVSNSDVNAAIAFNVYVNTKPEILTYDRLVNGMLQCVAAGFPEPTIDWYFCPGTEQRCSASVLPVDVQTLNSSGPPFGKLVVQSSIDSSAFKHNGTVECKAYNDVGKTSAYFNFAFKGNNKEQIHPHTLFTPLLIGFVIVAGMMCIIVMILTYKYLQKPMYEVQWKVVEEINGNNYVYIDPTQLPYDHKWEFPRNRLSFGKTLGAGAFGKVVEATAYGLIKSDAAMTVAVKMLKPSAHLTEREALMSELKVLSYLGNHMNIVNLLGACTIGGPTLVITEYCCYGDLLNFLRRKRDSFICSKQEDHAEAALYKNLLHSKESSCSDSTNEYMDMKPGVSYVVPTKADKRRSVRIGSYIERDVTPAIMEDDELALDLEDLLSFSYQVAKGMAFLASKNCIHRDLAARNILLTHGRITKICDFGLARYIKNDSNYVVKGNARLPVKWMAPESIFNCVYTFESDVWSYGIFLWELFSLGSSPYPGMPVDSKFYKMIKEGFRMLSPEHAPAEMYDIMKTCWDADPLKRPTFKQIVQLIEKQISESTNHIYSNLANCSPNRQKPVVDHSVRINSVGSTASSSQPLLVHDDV
The conditions noted are these: c-Kit (D816Y), [ATP] 10 µM, compound 10 uM; for remaining activity at 10 µM: read-out: % Enzyme Activity (relative to DMSO controls).

Assay [8] concerns the target T8, 382 unique human kinases (Homo sapiens, UniProt Q86V86).
T8 construct: purchased Reaction Biology (HotSpot contract assay)
The note with it: PIM3, [ATP] 20 µM.

Assay [9] deals with T9, 382 unique human kinases (Homo sapiens, UniProt Q9H2X6).
T9 construct: purchased Reaction Biology (HotSpot contract assay)
T9 sequence (Q9H2X6 whole entry): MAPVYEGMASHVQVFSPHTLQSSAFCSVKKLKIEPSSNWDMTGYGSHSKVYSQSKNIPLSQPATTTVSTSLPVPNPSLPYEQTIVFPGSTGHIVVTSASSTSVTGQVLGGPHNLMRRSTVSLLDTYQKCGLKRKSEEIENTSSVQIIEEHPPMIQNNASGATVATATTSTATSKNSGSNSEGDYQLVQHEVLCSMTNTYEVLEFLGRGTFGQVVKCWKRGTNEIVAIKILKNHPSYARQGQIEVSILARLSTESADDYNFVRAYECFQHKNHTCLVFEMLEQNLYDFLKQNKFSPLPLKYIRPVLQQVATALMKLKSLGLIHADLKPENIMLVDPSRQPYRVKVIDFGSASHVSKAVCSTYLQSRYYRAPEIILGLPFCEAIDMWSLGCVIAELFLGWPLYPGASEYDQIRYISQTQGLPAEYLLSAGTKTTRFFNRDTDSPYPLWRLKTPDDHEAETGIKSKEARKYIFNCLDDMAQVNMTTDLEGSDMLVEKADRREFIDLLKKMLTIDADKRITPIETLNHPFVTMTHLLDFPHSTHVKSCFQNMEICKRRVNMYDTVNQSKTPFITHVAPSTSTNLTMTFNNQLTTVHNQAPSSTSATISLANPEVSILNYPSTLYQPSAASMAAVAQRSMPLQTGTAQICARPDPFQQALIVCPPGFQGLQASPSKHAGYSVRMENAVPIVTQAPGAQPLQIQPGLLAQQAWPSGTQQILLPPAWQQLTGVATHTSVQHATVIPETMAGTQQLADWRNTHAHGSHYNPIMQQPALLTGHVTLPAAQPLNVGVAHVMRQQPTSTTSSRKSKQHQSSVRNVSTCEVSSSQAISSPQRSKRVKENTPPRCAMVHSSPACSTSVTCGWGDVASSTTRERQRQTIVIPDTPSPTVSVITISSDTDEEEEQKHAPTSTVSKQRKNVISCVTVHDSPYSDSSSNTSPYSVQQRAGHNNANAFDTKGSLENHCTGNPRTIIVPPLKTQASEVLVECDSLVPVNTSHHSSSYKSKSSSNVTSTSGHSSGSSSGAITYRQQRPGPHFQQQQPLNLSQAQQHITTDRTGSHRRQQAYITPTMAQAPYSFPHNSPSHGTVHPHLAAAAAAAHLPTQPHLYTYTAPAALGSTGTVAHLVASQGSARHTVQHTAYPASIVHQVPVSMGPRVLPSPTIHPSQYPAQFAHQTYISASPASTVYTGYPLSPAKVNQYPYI
The note with it: HIPK2, 10 uM; for remaining activity at 10 µM: read-out: % Enzyme Activity (relative to DMSO controls).

For assay [10], the target named is T10, 382 unique human kinases (Homo sapiens, UniProt P10721, V559A).
T10 construct: purchased Reaction Biology (HotSpot contract assay)
T10 sequence (P10721 26-976 V559A): as the sequence (P10721 26-976 D816Y) above, with V534A, Y791D counted along it
The note with it: c-Kit (V559A), [ATP] 100 µM, compound 10 uM; for remaining activity at 10 µM: read-out: % Enzyme Activity (relative to DMSO controls).

Where [11] appears, read: compound 10 uM, read-out: % Enzyme Activity (relative to DMSO controls).

T3 sequence (Q9Y5S2 whole entry): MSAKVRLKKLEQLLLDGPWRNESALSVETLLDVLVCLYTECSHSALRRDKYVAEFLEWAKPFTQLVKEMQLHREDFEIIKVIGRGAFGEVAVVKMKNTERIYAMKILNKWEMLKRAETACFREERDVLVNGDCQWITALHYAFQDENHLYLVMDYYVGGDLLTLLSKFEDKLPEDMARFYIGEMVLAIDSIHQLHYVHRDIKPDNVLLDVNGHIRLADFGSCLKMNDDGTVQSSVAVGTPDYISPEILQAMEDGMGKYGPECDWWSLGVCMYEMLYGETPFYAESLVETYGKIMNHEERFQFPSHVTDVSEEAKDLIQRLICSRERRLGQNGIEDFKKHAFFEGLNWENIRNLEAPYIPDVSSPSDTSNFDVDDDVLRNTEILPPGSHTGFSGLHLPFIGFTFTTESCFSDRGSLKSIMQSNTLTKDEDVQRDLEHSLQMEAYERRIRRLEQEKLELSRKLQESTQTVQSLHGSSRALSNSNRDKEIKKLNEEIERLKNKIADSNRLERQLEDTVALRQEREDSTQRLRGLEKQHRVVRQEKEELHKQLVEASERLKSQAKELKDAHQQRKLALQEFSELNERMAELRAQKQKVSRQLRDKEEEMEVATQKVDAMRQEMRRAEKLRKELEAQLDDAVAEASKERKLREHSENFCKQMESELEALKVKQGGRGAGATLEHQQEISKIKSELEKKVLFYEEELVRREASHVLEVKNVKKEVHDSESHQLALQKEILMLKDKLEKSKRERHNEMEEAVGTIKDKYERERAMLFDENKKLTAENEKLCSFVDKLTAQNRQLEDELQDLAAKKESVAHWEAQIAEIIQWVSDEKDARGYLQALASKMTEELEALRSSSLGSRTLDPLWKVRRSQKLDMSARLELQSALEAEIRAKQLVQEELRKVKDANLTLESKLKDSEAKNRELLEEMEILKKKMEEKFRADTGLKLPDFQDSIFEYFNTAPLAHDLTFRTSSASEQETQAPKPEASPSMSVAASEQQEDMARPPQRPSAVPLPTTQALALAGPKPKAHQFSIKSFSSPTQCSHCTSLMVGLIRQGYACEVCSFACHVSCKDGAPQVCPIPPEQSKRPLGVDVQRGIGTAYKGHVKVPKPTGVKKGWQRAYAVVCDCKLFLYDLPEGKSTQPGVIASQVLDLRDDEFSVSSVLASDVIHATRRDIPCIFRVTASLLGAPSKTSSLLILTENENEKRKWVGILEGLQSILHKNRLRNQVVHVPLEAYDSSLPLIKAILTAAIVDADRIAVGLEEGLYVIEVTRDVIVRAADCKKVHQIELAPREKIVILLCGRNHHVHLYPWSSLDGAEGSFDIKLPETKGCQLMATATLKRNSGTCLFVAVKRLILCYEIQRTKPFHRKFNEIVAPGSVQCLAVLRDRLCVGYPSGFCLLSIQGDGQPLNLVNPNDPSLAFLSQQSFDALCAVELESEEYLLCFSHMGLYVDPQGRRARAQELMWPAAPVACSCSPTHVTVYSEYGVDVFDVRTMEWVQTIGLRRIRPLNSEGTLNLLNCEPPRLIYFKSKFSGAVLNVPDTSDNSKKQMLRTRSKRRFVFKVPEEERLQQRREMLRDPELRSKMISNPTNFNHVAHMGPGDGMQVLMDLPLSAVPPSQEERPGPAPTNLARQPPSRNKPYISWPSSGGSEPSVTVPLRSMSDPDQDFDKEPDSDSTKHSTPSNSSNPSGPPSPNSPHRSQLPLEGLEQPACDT

As for `CC(C)c1cc(-c2n[nH]c(=O)n2-c2ccc3c(ccn3C)c2)c(O)cc1O` [Ganetespib (STA9090)], the remaining activity at 10 µM in assay [1] was determined as 82.2%; in [2], 74.3%; in assay [3], 78.9%; in [4] it was 63.5%; in assay [5] it was 88%; in [6] it was 107%.
On to `CC(C)c1cc(-c2n[nH]c(=O)n2-c2ccc3c(ccn3C)c2)c(O)cc1O` [Ganetespib], for which the remaining activity at 10 µM in [7] came to 32.1%; in [8] (setting [11]), 14.3%; in assay [9], 101%; in assay [10], 43.9%. The remaining activity at 1 µM in assay [8] (compound 1 uM, read-out: % Enzyme Activity (relative to DMSO controls)) was found to be 61.1%.
Turning to `CCNC(=O)c1noc(-c2cc(C(C)C)c(O)cc2O)c1-c1ccc(CN2CCOCC2)cc1` [Luminespib (AUY-922)], the “% Enzyme Activity (relative to DMSO controls)” value in [1] is 102.34%; in assay [2] it was 91.88%; in [3], 103.51%; in assay [4], 93.85%; in [5] it was 107.24%; in assay [6], 100.38%. Further, the remaining activity at 10 µM in [1] was 103%; in [2], 94.8%; in [3] it was 111%; in assay [4], 97.7%; in assay [5], 108%; in assay [6], 101%.
As to `CCNC(=O)c1noc(-c2cc(C(C)C)c(O)cc2O)c1-c1ccc(CN2CCOCC2)cc1` [Luminespib], the “% Enzyme Activity (relative to DMSO controls)” value was 53.55% in assay [7], 94.11% in assay [8] (compound 10 uM), 103.59% in [9] and 61.54% in assay [10]. Moreover, the remaining activity at 10 µM amounted to 57.9% in [7], 97.5% in [8] (setting [11]), 105% in assay [9] and 61.6% in [10].
